These results are taken from patent publication US9434711B2 (Janssen Pharmaceutica, NV, priority 2007, dated 2016).

The test concerns the target canine TRPM8 (Canis lupus familiaris, UniProt Q1A7N1). Briefly: In Vitro Canine TRPM8 Functional Assay (Ca2+ fluorescence, icilin activation). It is filed as cell-based. Conditions: HEK293 cells stably expressing canine TRPM8, icilin activation; for inhibition at 0.2 µM: 0.2 μM compound, read-out: % Inh @ 0.2; for IC50: average of two or more determinations, read-out: IC50. The method, boiled down:
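Canine TRPM8 stably expressed in HEK293; compound added 5 min before icilin challenge (~80% max response), with fluorescent Ca2+ signal tracked throughout.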

Chain of canine TRPM8 (Q1A7N1 1-1104): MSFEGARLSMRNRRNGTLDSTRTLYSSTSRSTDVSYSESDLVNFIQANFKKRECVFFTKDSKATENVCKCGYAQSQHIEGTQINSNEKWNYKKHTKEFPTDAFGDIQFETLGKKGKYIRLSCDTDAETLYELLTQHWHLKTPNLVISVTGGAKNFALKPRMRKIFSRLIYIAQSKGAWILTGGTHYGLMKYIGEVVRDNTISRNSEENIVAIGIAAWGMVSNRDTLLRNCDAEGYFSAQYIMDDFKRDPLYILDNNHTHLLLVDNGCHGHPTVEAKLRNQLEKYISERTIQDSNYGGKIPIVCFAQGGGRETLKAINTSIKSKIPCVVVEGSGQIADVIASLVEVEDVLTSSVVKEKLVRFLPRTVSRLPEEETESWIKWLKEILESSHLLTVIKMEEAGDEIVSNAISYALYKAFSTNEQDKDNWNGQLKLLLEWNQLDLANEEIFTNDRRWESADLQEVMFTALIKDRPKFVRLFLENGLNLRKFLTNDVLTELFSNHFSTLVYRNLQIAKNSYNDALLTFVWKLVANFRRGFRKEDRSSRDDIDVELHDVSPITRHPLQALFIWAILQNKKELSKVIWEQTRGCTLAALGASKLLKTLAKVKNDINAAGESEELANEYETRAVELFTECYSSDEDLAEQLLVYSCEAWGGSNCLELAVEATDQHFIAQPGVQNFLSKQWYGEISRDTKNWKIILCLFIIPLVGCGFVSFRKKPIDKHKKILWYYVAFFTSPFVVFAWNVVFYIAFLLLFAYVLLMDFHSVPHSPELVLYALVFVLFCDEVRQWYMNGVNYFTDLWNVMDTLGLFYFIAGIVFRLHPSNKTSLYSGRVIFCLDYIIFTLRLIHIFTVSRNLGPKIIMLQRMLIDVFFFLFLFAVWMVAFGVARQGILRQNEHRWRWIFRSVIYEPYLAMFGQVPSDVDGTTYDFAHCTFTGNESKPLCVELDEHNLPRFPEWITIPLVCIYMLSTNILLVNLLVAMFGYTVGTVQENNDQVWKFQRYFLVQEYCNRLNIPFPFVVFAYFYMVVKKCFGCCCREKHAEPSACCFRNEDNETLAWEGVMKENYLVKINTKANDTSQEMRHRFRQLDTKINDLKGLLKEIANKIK

Usually IC50 stands for the concentration at which inhibition is half-maximal. For the molecule `Cc1c(N(Cc2ccc(OC(F)(F)F)cc2)S(=O)(=O)c2ccc(N3CCOCC3)cc2)sc2ccccc12` [Compound 800, N-(3-Methyl-benzo[b]thiophen-2-yl)-N-(4-trifluoromethoxy-benzyl)-4-morpholino-benzenesulfonamide], the inhibition at 0.2 µM is 102% and the concentration for half-maximal inhibition (IC50) came out at 6.8 nM.
For `Cc1c(N(Cc2ccc(OC(F)(F)F)cc2)S(=O)(=O)c2ccc(-c3noc(=O)[nH]3)cc2)sc2ccccc12` [Compound 801, N-(3-Methyl-benzo[b]thiophen-2-yl)-N-(4-trifluoromethoxy-benzyl)-4-(5-oxo-4,5-dihydro-[1,2,4]oxadiazol-3-yl)-benzenesulfonamide] the same measures were 102% and 2.8 nM.
For `CCS(=O)(=O)N(Cc1cc(F)c(F)c(OC)c1F)c1sc2ccccc2c1C(C)(C)O` [Compound 802, N-[3-(1-Hydroxy-1-methyl-ethyl)-benzo[b]thiophen-2-yl]-N-(2,4,5-trifluoro-3-methoxy-benzyl)-ethanesulfonamide] the same measures were 101% and 8 nM.
The corresponding values for `C=C(C)c1c(N(Cc2cc(F)c(F)c(OC)c2F)S(=O)(=O)CC)sc2ccccc12` [Compound 803, N-(3-Isopropenyl-benzo[b]thiophen-2-yl)-N-(2,4,5-trifluoro-3-methoxy-benzyl)-ethanesulfonamide] are 101% and 30.8 nM.
`Cc1c(N(CCC2CC2)S(=O)(=O)c2cnccc2-c2nnn[nH]2)sc2ccccc12` [Compound 804, N-(3-Methyl-benzo[b]thiophen-2-yl)-N-(cyclopropyl-ethyl)-4-(1H-tetrazol-5-yl)-pyridin-3-ylsulfonamide]: the IC50 came out at 11.1 nM.
Take `Cc1c(N(CCC2CC2)S(=O)(=O)c2ccc(-c3nnn[nH]3)nc2)sc2ccccc12` [Compound 804]: the inhibition at 0.2 µM was determined as 102%.
Consider `Cc1c(N(Cc2ccc(OC(F)(F)F)cc2)S(=O)(=O)c2ccc(-c3nnn[nH]3)nc2)sc2ccccc12` [Compound 805], for which the inhibition at 0.2 µM amounted to 103% and the IC50 came out at 2.2 nM.
Consider `Cc1c(N(CCCCC(F)(F)F)S(=O)(=O)c2cnccc2-c2nnn[nH]2)sc2ccccc12` [Compound 806, N-(3-Methyl-benzo[b]thiophen-2-yl)-N-(5,5,5-trifluoro-pentyl)-4-(1H-tetrazol-5-yl)-pyridin-3-ylsulfonamide], for which the IC50 was 13 nM.
Consider `Cc1c(N(CCCCC(F)(F)F)S(=O)(=O)c2ccc(-c3nnn[nH]3)nc2)sc2ccccc12` [Compound 806], for which the inhibition at 0.2 µM is 102%.
Turning to `Cc1c(N(CCC2CC2)S(=O)(=O)c2ccc(-c3noc(=O)[nH]3)nc2)sc2ccccc12` [Compound 807], the inhibition at 0.2 µM was 103% and the IC50 worked out at 6 nM.
As for `Cc1c(N(Cc2ccc(OC(F)(F)F)cc2)S(=O)(=O)c2cnccc2-c2noc(=O)[nH]2)sc2ccccc12` [Compound 808, N-(3-Methyl-benzo[b]thiophen-2-yl)-N-(4-trifluoromethoxy-benzyl)-4-(5-oxo-4,5-dihydro-[1,2,4]oxadiazol-3-yl)-pyrid-3-ylsulfonamide], the IC50 was determined as 0.7 nM.
As to `Cc1c(N(Cc2ccc(OC(F)(F)F)cc2)S(=O)(=O)c2ccc(-c3noc(=O)[nH]3)nc2)sc2ccccc12` [Compound 808], the inhibition at 0.2 µM turned out to be 102%.
Regarding `Cc1c(N(Cc2ccc(OC(F)(F)F)cc2)S(=O)(=O)c2ccc(-c3nsc(=O)[nH]3)cc2)sc2ccccc12` [Compound 810, N-(3-Methyl-benzo[b]thiophen-2-yl)-N-(4-trifluoromethoxy-benzyl)-4-(5-oxo-4,5-dihydro-[1,2,4]thiadiazol-3-yl)-benzenesulfonamide], the inhibition at 0.2 µM worked out at 102% and the IC50 was 1 nM.
For `Cc1c(N(CCCCC(F)(F)F)S(=O)(=O)c2ccc(-c3n[nH]c(=O)[nH]3)cc2)sc2ccccc12` [Compound 811, N-(3-Methyl-benzo[b]thiophen-2-yl)-N-(5,5,5-trifluoro-pentyl)-4-(5-oxo-4,5-dihydro-1H-[1,2,4]triazol-3-yl)-benzenesulfonamide] the same measures were 103% and 3.7 nM.
